Literature values as cited in US20170049816A1, “Methods of Benchmarking Wellness with a Stable Reactive Oxygen Species Solution” (Reoxcyn Discoveries Group, Inc., priority 2013, published 2017).

Conditions: pH-neutral aqueous solution (pH around 7.0) at room temperature

Compound: O=[O+][O-] [dissolved ozone (O3), ozone]
- half-life: about 20 min
